According to patent US5631382A, “Fulgimide compound” (Tokuyama Corporation, priority 1994, dated 1997):

Columns and labels:
Assay type in all cases: physicochemical
[1] = Initial color of polymer plate (visual observation, YI by color-difference meter); settings: for Initial color, visually observed: before irradiation; for Initial color, YI: color-difference meter SM-4
From the text: (§1) 0.04 Parts of fulgimide compounds shown in Table 3, 70 parts of tetraethyleneglycol dimethacrylate, 15 parts of triethyleneglycol dimethacrylate, 10 parts of glycidyl methacrylate, 5 parts of 2-hydroethylmethacrylate and 1 part of perbutyl ND as a polymerization catalyst, were sufficiently mixed together until they were completely dissolved. The mixture solution was poured into a mold constituted by a glass plate and a gasket of an ethylene/vinyl acetate copolymer, and its temperature was elevated in an air oven from 35° C. to 90° C. over a period of 20 hours to effect the polymerization. After the polymerization, the polymer was taken out from the glass mold.
(§2) The obtained polymer plate was irradiated with xenon light by using a Xenon Long-Life Fade Meter FAL-25AX-HC (output: 2.5 KW, source of light: xenon long-life arc lamp) manufactured by Suga Shikenki Co., in order to measure a maximum absorption wavelength in a state of developing color. The initial color tone was observed by eyes, and YI of the samples was measured by using a color-difference meter (Model SM-4) manufactured by Suga Shikenki Co. The wear life (T 1/2) was also measured in compliance with JIS L0843 and JIS B7754. T 1/2 is defined to be the time until the color density decreases down to one-half the initial value when the polymer plate is irradiated with light by using the fade meter.
(§3) For the purpose of comparison, the fulgimide compounds represented by the following formulas (A) to (I) were also used to prepare polymer plates to measure their properties in the same procedure as described above. [drawing 113]

[2] = Developed color of polymer plate under xenon light (color density, maximum absorption wavelength); settings: for Color density: 0.04 parts in polymer plate; for λ max: state of developing color, polymer plate
From the text: as §1, §2, §3

[3] = Wear life (T 1/2) of polymer plate in xenon fade meter, JIS L0843 and JIS B7754; settings: time until color density decreases to one-half the initial value
From the text: as §1, §2, §3

Compound | Initial color, visually observed [1] | Initial color, YI [1] | Color density [2] | λ max [2] | T1/2 [3]
CCN1C(=O)C2=C(C)c3ccsc3C3(C4CC5CC(C4)CC3C5)C2C1=O (stereo not drawn) [A, reference compound] | yellow | 10.03 | 0.68 | 540 nm | 100 h
CC1=C2C(=O)N(CC#N)C(=O)C2C2(c3oc(-c4ccccc4)cc31)C1CC3CC(C1)CC2C3 (stereo not drawn) [B, reference compound] | yellow | 10.65 | 0.75 | 550 nm | 95 h
COc1ccc(-c2cc3c(o2)C2(C4CC5CC(C4)CC2C5)C2C(=O)N(CC#N)C(=O)C2=C3C)cc1 (stereo not drawn) [C, reference compound] | yellow | 17.56 | 0.77 | 560 nm | 95 h
N#CN1C(=O)C2=C(C3CC3)c3ccsc3C3(C4CC5CC(C4)CC3C5)C2C1=O (stereo not drawn) [Compound 1, N-Cyano-4-cyclopropyl-6,7-dihydrospirobenzothiophenedicarboxyimide-7,2'-tricyclo[3.3.1.1^3,7]decane] | colorless | 1.85 | 0.65 | 615 nm | 400 h
CC(=O)N1C(=O)C2=C(C3CC3)c3ccsc3C3(C4CC5CC(C4)CC3C5)C2C1=O (stereo not drawn) [Compound 2, N-Acetyl-4-cyclopropyl-6,7-dihydrospirobenzothiophenedicarboxyimide-7,2'-tricyclo[3.3.1.1^3,7]decane] | colorless | 2.01 | 1.20 | 560 nm | 140 h
O=C1C2=C(C3CC3)c3ccsc3C3(C4CC5CC(C4)CC3C5)C2C(=O)N1C(=O)c1ccccc1 (stereo not drawn) [Compound 3, N-Benzoyl-4-cyclopropyl-6,7-dihydrospirobenzothiophenedicarboxyimide-7,2'-tricyclo[3.3.1.1^3,7]decane] | colorless | 3.84 | 0.90 | 570 nm | 135 h
CC(=O)N1C(=O)C2=C(C3CC3)c3cc(C)sc3C3(C4CC5CC(C4)CC3C5)C2C1=O (stereo not drawn) [Compound 4, N-Acetyl-4-cyclopropyl-6,7-dihydro-2-methylspirobenzothiophenedicarboxyimide-7,2'-tricyclo[3.3.1.1^3,7]decane] | colorless | 2.15 | 1.43 | 562 nm | 140 h
CC1=C2C(=O)N(C#N)C(=O)C2C2(c3oc(-c4ccccc4)cc31)C1CC3CC(C1)CC2C3 (stereo not drawn) [Compound 5] | colorless | 3.96 | 1.12 | 603 nm | 260 h
CC(C)C1=C2C(=O)N(S(C)(=O)=O)C(=O)C2C2(c3c1ccn3C)C1CC3CC2CC(Cl)(C3)C1 (stereo not drawn) [Compound 6, 5'-Chloro-6,7-dihydro-N-methyl-N'-methylsulfonyl-4-isopropylspiroindoledicarboxyimide-7,2'-tricyclo[3.3.1.1^3,7]decane] | pale yellow | 4.85 | 0.95 | 601 nm | 110 h
CCC1=C2C(=O)N(C(=O)C(Cl)(Cl)Cl)C(=O)C2C2(c3sc4cc(OC)ccc4c31)C1CC3CC(Cl)(C1)CC2(Cl)C3 (stereo not drawn) [Compound 7, 3',5'-Dichloro-3,4-dihydro-1-ethyl-7-methoxy-N-trichloromethylcarbonylspirodibenzo[5,6-b:d]thiophenedicarboxyimide-4,2'-tricyclo[3.3.1.1^3,7]decane] | colorless | 2.15 | 0.85 | 550 nm | 100 h
COc1ccc(C2=C3C(=O)N(C(=O)c4ccccc4)C(=O)C3C3(c4oc5ccccc5c42)C2CC4CC3CC(C)(C4)C2)cc1 (stereo not drawn) [Compound 8, N-Benzoyl-3,4-dihydro-5'-methyl-1-(p-methoxyphenyl)spirobenzo[5,6-b:d]furandicarboxyimide-4,2-tricyclo[3.3.1.1^3,7]decane] | colorless | 3.94 | 0.98 | 541 nm | 110 h
COC12CC3CC(C1)C1(c4c(c5ccccc5n4-c4ccccc4)C(C4CC4)=C4C(=O)N(C(Cl)(Cl)Cl)C(=O)C41)C(C3)C2 (stereo not drawn) [Compound 9] | colorless | 3.85 | 1.02 | 610 nm | 145 h
O=C1C2=C(C3CC3)c3c(sc4c3CCCC4)C3(C4CC5CC(C4)CC3C5)C2C(=O)N1S(=O)(=O)c1ccccc1 (stereo not drawn) [Compound 10] | pale yellow | 4.99 | 1.12 | 620 nm | 140 h
CC1=C2C(=O)N(C(=O)c3cccc(C#N)c3)C(=O)C2C2(c3c1c1c(n3C)CCCC1)C1CC3CC(F)(C1)CC2(F)C3 (stereo not drawn) [Compound 11] | colorless | 2.35 | 0.88 | 630 nm | 100 h
CC12CCCC(CCC1)C21c2sc([N+](=O)[O-])cc2C(C2CC2)=C2C(=O)N(C(=O)c3c(F)c(F)c(F)c(F)c3F)C(=O)C21 (stereo not drawn) [Compound 12] | colorless | 2.25 | 1.02 | 593 nm | 140 h
Cn1c(Cl)cc2c1C1(C3CCCC1(Cl)CCC3)C1C(=O)N(C(F)(F)F)C(=O)C1=C2c1ccccc1 (stereo not drawn) [Compound 14] | pale yellow | 4.89 | 0.75 | 603 nm | 100 h
CCOC(=O)N1C(=O)C2=C(C)c3c(sc4ccccc34)C3(C4CCCC3(OC)CCC4)C2C1=O (stereo not drawn) [Compound 15] | colorless | 2.95 | 0.85 | 520 nm | 110 h
CC(=O)N1C(=O)C2=C(C)c3c4c(n(-c5ccccc5)c3C3(C5CCCC3CCC5)C2C1=O)CCCC4 (stereo not drawn) [Compound 16] | colorless | 3.56 | 1.05 | 625 nm | 100 h
CCCCC12CCC(CC1)C21c2sc(C)c(CC)c2C(C2CC2)=C2C(=O)N(C(=O)c3cccc(C(F)(F)F)c3)C(=O)C21 (stereo not drawn) [Compound 17] | colorless | 3.10 | 1.10 | 610 nm | 140 h
N#CN1C(=O)C2=C(c3ccoc3)c3ccoc3C3(C4CCC3CC4)C2C1=O (stereo not drawn) [Compound 18] | colorless | 2.95 | 1.11 | 613 nm | 250 h
CSc1cc2c(n1C)C1(C3C(=O)N(C(F)(F)F)C(=O)C3=C2C(C)C)C2(C)CCC1(C)CC2 (stereo not drawn) [Compound 19] | colorless | 3.05 | 0.81 | 603 nm | 110 h
CCOC12CCC(CC1)C21c2sc3ccccc3c2C(CC)=C2C(=O)N(S(=O)(=O)CC)C(=O)C21 (stereo not drawn) [Compound 20] | pale yellow | 4.85 | 0.95 | 548 nm | 100 h
O=C1C2=C(c3ccccc3)c3c(oc4ccccc34)C3(C4CCC3CC4)C2C(=O)N1C(Cl)(Cl)Cl (stereo not drawn) [Compound 21] | colorless | 2.95 | 0.95 | 540 nm | 115 h
CC(=O)N1C(=O)C2=C(C3CC3)c3c(sc4c3CCCC4)C3(C4CCC3CC4)C2C1=O (stereo not drawn) [Compound 23] | colorless | 2.36 | 0.87 | 600 nm | 140 h
CCCC1=C2C(=O)N(C(Cl)(Cl)Cl)C(=O)C2C2(c3oc4c(c31)CCCC4)C1CCC2CC1 (stereo not drawn) [Compound 24] | colorless | 2.45 | 0.94 | 576 nm | 140 h
CC1=C2C(=O)N(S(=O)(=O)c3cc(Cl)cc(Cl)c3)C(=O)C2C2(c3c1c1c(n3-c3ccccc3)CCCC1)C1CCC2CC1 (stereo not drawn) [Compound 25] | colorless | 3.26 | 0.71 | 619 nm | 100 h
COc1c(C)sc2c1C1(C3CC4CC(C3)CC1C4)C1C(=O)N(C(=O)Oc3ccccc3)C(=O)C1=C2C (stereo not drawn) [Compound 26] | colorless | 3.84 | 0.54 | 546 nm | 120 h
